This is an account of results in PubChem BioAssay (NCI).

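These data come from cells grown in 96-well plates and exposed to compound for 48 hours at five concentrations. GI50 is the concentration that inhibits growth by half. Definition used: TGI = concentration required for complete inhibition of growth.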

Test systems include HL-60(TB) leukemia; OVCAR-8 ovarian; M14 melanoma; UO-31 renal; COLO 205 colon; NCI-H226 lung; OVCAR-5 ovarian; SN12C renal; SF-539 CNS; T-47D breast.
Common to all, as to assay: NCI-60 cell line screen, 48 h

Take `CC1C(c2ccccc2)N(C)C(c2ccccc2)C(C)C1(O)c1ccccc1` (stereo not given): the TGI in the assay on HL-60(TB) leukemia is above 100 µM; in the assay on OVCAR-8 ovarian, above 100 µM; in the assay with M14 melanoma, above 100 µM; with UO-31 renal it was above 100 µM; in the assay with COLO 205 colon, 58.7 µM; in the assay on NCI-H226 lung, above 100 µM. Besides, the TGI in the assay with OVCAR-5 ovarian, with SN12C renal and in the assay with SF-539 CNS was above 100 µM in each case.

For `C/C(=N\N=C(N)N)C(CN1CCOCC1)C(c1ccccc1)c1c(O)c2ccccc2oc1=O` (stereo not given), the TGI in the assay with HL-60(TB) leukemia, with OVCAR-8 ovarian, with M14 melanoma, with COLO 205 colon, in the assay on NCI-H226 lung and in the assay on OVCAR-5 ovarian was above 100 µM in each case. Further, the TGI with SN12C renal and with SF-539 CNS was above 100 µM each time.

Regarding `COc1cc(/C=C2\[C@@H]3NC(Cc4c(OC)c(C)c(OC)c(OC)c43)C(=O)N2Cc2ccccc2)c(OC)c(C)c1OC`, the TGI in the assay on HL-60(TB) leukemia was 62.8 µM; with OVCAR-8 ovarian, above 100 µM; in the assay with M14 melanoma it was above 100 µM; with UO-31 renal, 80.5 µM; in the assay on COLO 205 colon it was 28.3 µM; in the assay on NCI-H226 lung it was above 100 µM. The TGI in the assay with OVCAR-5 ovarian, with SN12C renal and in the assay on SF-539 CNS was above 100 µM in each case.

`O=C(CC12C3C4C1C1C2C3C41CC(=O)NO)NO` (stereo not given): the TGI in the assay with HL-60(TB) leukemia was 86.2 µM; in the assay on OVCAR-8 ovarian, above 100 µM; with M14 melanoma, above 100 µM; in the assay on COLO 205 colon, above 100 µM; with NCI-H226 lung, 94.3 µM; in the assay with OVCAR-5 ovarian, above 100 µM. The TGI in the assay on SN12C renal and in the assay with SF-539 CNS was above 100 µM throughout.

As for `OC1OCC(COc2cc(Cl)c(Cl)cc2Cl)OC1O` (stereo not given), the TGI with HL-60(TB) leukemia is 90.9 µM; with OVCAR-8 ovarian, above 100 µM; in the assay on M14 melanoma it was above 100 µM; in the assay on UO-31 renal, above 100 µM; with COLO 205 colon it was above 100 µM; in the assay on NCI-H226 lung it was above 100 µM. Further, the TGI in the assay with OVCAR-5 ovarian, in the assay on SN12C renal and with SF-539 CNS was above 100 µM in each case.

Consider `CC1(C)CC(=O)C(CC2C(=O)CCCC2=O)C(=O)C1`, for which the TGI with HL-60(TB) leukemia, with OVCAR-8 ovarian, with M14 melanoma, in the assay on UO-31 renal, with COLO 205 colon and in the assay with NCI-H226 lung was above 100 µM in each case. Further, the TGI in the assay with OVCAR-5 ovarian, in the assay on SN12C renal and in the assay on SF-539 CNS was above 100 µM throughout.

Turning to `CCOC(=O)N1CCC(N=C2CSc3nnc(-c4cc(C(F)(F)F)cc(C(F)(F)F)c4)n3N2)CC1`, the GI50 in the assay with OVCAR-8 ovarian was 2.44 µM; with M14 melanoma, 1.95 µM; in the assay with UO-31 renal, 1.66 µM; in the assay with COLO 205 colon, 2.17 µM; with NCI-H226 lung, 2.16 µM; in the assay with OVCAR-5 ovarian, 1.95 µM. Moreover, the GI50 was 2.6 µM with T-47D breast, 1.7 µM in the assay on SN12C renal and 2.06 µM in the assay with SF-539 CNS. Further, the TGI in the assay with OVCAR-8 ovarian was 6.25 µM; in the assay on M14 melanoma, 3.54 µM; with UO-31 renal it was 5.4 µM; in the assay with COLO 205 colon, 3.93 µM; in the assay on NCI-H226 lung, 5.02 µM; in the assay on OVCAR-5 ovarian it was 4 µM. The TGI in the assay with T-47D breast stood at 6.82 µM; in the assay on SN12C renal, 3.57 µM; in the assay on SF-539 CNS it was 3.88 µM.

`C=CCc1c(O)c(C(=O)/C=C/c2ccc(Cl)cc2)c(OC)c2ccoc12`: the GI50 with OVCAR-8 ovarian was 3.04 µM; in the assay on M14 melanoma it was 5.08 µM; with UO-31 renal it was 2.88 µM; in the assay on COLO 205 colon, 4.44 µM; in the assay with NCI-H226 lung it was 1.52 µM; with OVCAR-5 ovarian, 2.8 µM. In addition, the GI50 is 3.29 µM in the assay with T-47D breast, 4.96 µM in the assay on SN12C renal and 1.79 µM in the assay on SF-539 CNS. The TGI was determined as 12 µM with OVCAR-8 ovarian; 29.2 µM in the assay on M14 melanoma; 13.3 µM in the assay with UO-31 renal; 15.5 µM in the assay with COLO 205 colon; 2.97 µM with NCI-H226 lung; 9.71 µM in the assay with OVCAR-5 ovarian. Besides, the figures for the TGI in the assay on T-47D breast, in the assay with SN12C renal and in the assay with SF-539 CNS were 19 µM, 16.9 µM and 3.85 µM, respectively.

As to `CSc1ccc(N2C(=O)C3c4[nH]c5ccccc5c4C4CCC(C(C)(C)C)CC4C3C2=O)cc1` (stereo not given), the TGI is 31.1 µM with HL-60(TB) leukemia; 27.8 µM with OVCAR-8 ovarian; above 100 µM in the assay on M14 melanoma; 40.7 µM in the assay on UO-31 renal; 25.2 µM in the assay with COLO 205 colon; 42.9 µM in the assay on NCI-H226 lung. The TGI in the assay on OVCAR-5 ovarian is above 100 µM; in the assay on SN12C renal it was 35.9 µM; in the assay on SF-539 CNS, 43.1 µM.

`CC1(c2ccc(F)cc2)C2C(=O)NC(=O)C1C(=O)NC2=O` (stereo not given): the TGI in the assay on HL-60(TB) leukemia, in the assay with OVCAR-8 ovarian, with M14 melanoma, with UO-31 renal, in the assay with COLO 205 colon and with NCI-H226 lung was above 100 µM in each case. In addition, the TGI in the assay with OVCAR-5 ovarian, with SN12C renal and in the assay on SF-539 CNS was above 100 µM in each case.

In the case of `COc1nn(C)cc1Nc1nccc(-c2c[nH]c3c(NC(=O)[C@@H](C)N4CCN(C)CC4)cccc23)n1`, the GI50 was 28.9 µM in the assay on HL-60(TB) leukemia; above 100 µM in the assay on OVCAR-8 ovarian; 18.9 µM in the assay on M14 melanoma; 20.7 µM with UO-31 renal; 14.3 µM in the assay on NCI-H226 lung; 42.5 µM in the assay with OVCAR-5 ovarian. Besides, the figures for the GI50 in the assay with SN12C renal and with SF-539 CNS were 38.3 µM and 18 µM, respectively. The TGI in the assay with HL-60(TB) leukemia was above 100 µM; in the assay with OVCAR-8 ovarian it was above 100 µM; with M14 melanoma it was 41.2 µM; in the assay with UO-31 renal, above 100 µM; in the assay with NCI-H226 lung, above 100 µM; in the assay on OVCAR-5 ovarian, above 100 µM. For the same compound, the results for the TGI with SN12C renal and in the assay on SF-539 CNS were above 100 µM and 38.4 µM, respectively.

In the case of `O=C1c2ccccc2C(=O)N1CC#CCO`, the TGI with HL-60(TB) leukemia, in the assay on OVCAR-8 ovarian, in the assay on M14 melanoma, in the assay on UO-31 renal, in the assay on NCI-H226 lung and in the assay with OVCAR-5 ovarian was above 100 µM each time. Besides, the TGI with SN12C renal and in the assay on SF-539 CNS was above 100 µM in each case.
